Assay results: ChEMBL document CHEMBL5370621, “Design, Synthesis, and Biological Evaluation of Novel Thioureidobenzamide (TBA) Derivatives as HBV Capsid Assembly Modulators” (J Med Chem, 2023)
Active and inactive are the calls of the source. No cut-off for these calls is given here.

What was measured:
[1] = Intrinsic clearance in human liver microsomes at 100 uM preincubated for 10 mins followed by incubation with NADPH regenerating system for 30 mins and measured per mg protein by LC-MS/MS analysis; type: ADME, Microsome; conditions: time 40 min, read-out: CLH
[2] = Selectivity index, ratio of CC50 for cytotoxicity against human HePAD38 cells to EC50 for antiviral activity against Hepatitis B virus infected in human HePAD38 cells; type: toxicity, cell-based; conditions: read-out: Ratio CC50/EC50
Hepatitis B virus [3] = experiment: Antiviral activity against Hepatitis B virus infected in human HePAD38 cells assessed as inhibition of viral DNA replication by qPCR analysis; type: functional, organism-based
[4] = Cytotoxicity against human HePAD38 cells assessed as reduction in cell viability incubated for 72 hrs by CCK8 assay; type: toxicity, cell-based
Core antigen = Core antigen (Hepatitis B virus, UniProt Q03732); experiment: Inhibition of fluorescent-labeled capsid assembly in Hepatitis B virus incubated for 1 hr by fluorescence based analysis
Sequence of Core antigen (Q03732 whole entry): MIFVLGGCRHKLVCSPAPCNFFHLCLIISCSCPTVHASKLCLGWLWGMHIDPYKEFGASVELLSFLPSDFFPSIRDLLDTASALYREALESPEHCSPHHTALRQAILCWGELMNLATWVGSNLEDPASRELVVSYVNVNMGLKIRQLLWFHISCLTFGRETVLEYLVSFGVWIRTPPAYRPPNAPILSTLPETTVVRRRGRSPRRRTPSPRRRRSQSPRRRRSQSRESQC

[5] = Half life in human liver microsomes at 100 uM preincubated for 10 mins followed by incubation with NADPH regenerating system for 30 mins by LC-MS/MS analysis; type: ADME, Microsome; conditions: time 40 min
[6] = Metabolic stability of the compound in human liver microsomes assessed as parent compound remaining at 100 uM incubated for 60 mins in presence of NADPH by LC-MS/MS analysis; type: ADME, Microsome; conditions: read-out: Stability
[7] = Metabolic stability of the compound in human liver microsomes assessed as parent compound remaining at 100 uM incubated for 60 mins in absence of NADPH by LC-MS/MS analysis; type: ADME, Microsome; conditions: read-out: Stability
[8] = Half life in human plasma at 100 uM by LC-MS/MS analysis; type: ADME, cell-free
[9] = Half life in Sprague-Dawley rat at 2 mg/kg, iv by LC-MS/MS analysis; type: ADME, organism-based; conditions: in vivo
[10] = Cmax in Sprague-Dawley rat at 2 mg/kg, iv by LC-MS/MS analysis; type: ADME, organism-based; set-up: dose 2 mg/kg, route iv; conditions: in vivo
[11] = AUC(0 to t) in Sprague-Dawley rat at 2 mg/kg, iv by LC-MS/MS analysis; type: ADME, organism-based; set-up: dose 2 mg/kg, route iv; conditions: in vivo
[12] = AUC(0 to infinity) in Sprague-Dawley rat at 2 mg/kg, iv by LC-MS/MS analysis; type: ADME, organism-based; set-up: dose 2 mg/kg, route iv; conditions: in vivo
[13] = Volume of distribution at steady state in Sprague-Dawley rat at 2 mg/kg, iv by LC-MS/MS analysis; type: ADME, organism-based; conditions: in vivo
[14] = MRT(0 to t) in Sprague-Dawley rat at 2 mg/kg, iv by LC-MS/MS analysis; type: ADME, organism-based; conditions: in vivo
[15] = Half life in Sprague-Dawley rat at 20 mg/kg, po by LC-MS/MS analysis; type: ADME, organism-based; conditions: in vivo
[16] = Tmax in Sprague-Dawley rat at 20 mg/kg, po by LC-MS/MS analysis; type: ADME, organism-based; conditions: in vivo
[17] = Cmax in Sprague-Dawley rat at 20 mg/kg, po by LC-MS/MS analysis; type: ADME, organism-based; set-up: dose 20 mg/kg, route po; conditions: in vivo
[18] = AUC(0 to t) in Sprague-Dawley rat at 20 mg/kg, po by LC-MS/MS analysis; type: ADME, organism-based; set-up: dose 20 mg/kg, route po; conditions: in vivo
[19] = AUC(0 to infinity) in Sprague-Dawley rat at 20 mg/kg, po by LC-MS/MS analysis; type: ADME, organism-based; set-up: dose 20 mg/kg, route po; conditions: in vivo
[20] = MRT(0 to t) in Sprague-Dawley rat at 20 mg/kg, po by LC-MS/MS analysis; type: ADME, organism-based; conditions: in vivo
[21] = MRT(0 to infinity) in Sprague-Dawley rat at 20 mg/kg, po by LC-MS/MS analysis; type: ADME, organism-based; conditions: in vivo
[22] = Oral bioavailability in Sprague-Dawley rat at 20 mg/kg by LC-MS/MS analysis; type: ADME, organism-based; conditions: in vivo
[23] = Cytotoxicity against human HLCZ01 cells assessed as reduction in cell viability upto 30 uM incubated for 72 hrs by CCK8 assay; type: toxicity, cell-based; conditions: hlcz01, 72 h
Hepatitis B virus [24] = experiment: Antiviral activity against Hepatitis B virus infected in human HLCZ01 cells assessed as inhibition of HBV virion production by measuring inhibition of viral DNA replication incubated for 6 days by qPCR analysis; type: functional, organism-based
Hepatitis B virus [25] = experiment: Antiviral activity against Hepatitis B virus infected in human HLCZ01 cells assessed as reduction in HBsAg level at 0.03 to 3 uM incubated for 6 days by ELISA; type: functional, organism-based; conditions: dose 0.03-3 µM, time 6.0 day
Hepatitis B virus [26] = experiment: Antiviral activity against Hepatitis B virus infected in C57BL/6J mouse assessed as inhibition of viral DNA level in serum at 25 mg/kg/day, po for 18 days by qPCR analysis; type: functional, organism-based; conditions: time 18.0 day
Hepatitis B virus [27] = experiment: Antiviral activity against Hepatitis B virus infected in C57BL/6J mouse assessed as reduction in HBcAg expression […] at 25 mg/kg/day, po for 18 days by immunohistochemistry; type: functional, organism-based; conditions: time 18.0 day
Hepatitis B virus [28] = experiment: Antiviral activity against Hepatitis B virus infected in C57BL/6J mouse assessed as reduction in HBsAg level in serum at 25 mg/kg/day, po for 18 days by ELISA; type: functional, organism-based; conditions: time 18.0 day
[29] = Hepatotoxicity in C57BL/6J mouse infected with Hepatitis B virus assessed as serum ALT level at 25 mg/kg/day, po for 18 days by colorimetry; type: toxicity, organism-based; conditions: in vivo, 432 h, time 18 day
[30] = Hepatotoxicity in C57BL/6J mouse infected with Hepatitis B virus assessed as serum AST level at 25 mg/kg/day, po for 18 days by colorimetry; type: toxicity, organism-based; conditions: in vivo, 432 h, time 18 day

Compound `O=C(O)Cc1ccccc1Nc1c(Cl)cccc1Cl` [DICLOFENAC] has a microsomal CLint at 100 µM [1] of 257 µL/min/mg.
With `Cc1cc(NC(=O)c2cc(NC(=S)NC(C)C)c(F)cc2Br)ccc1F` the selectivity ratio [2] was > 714, the EC50 (Hepatitis B virus [3]) was 140 nM and the CC50 at 72 h [4] was > 100000 nM. For the same compound, the IC50 (Core antigen) was 940 nM.
`C=CCNC(=S)Nc1cc(C(=O)Nc2ccc(F)c(C)c2)c(C)cc1F` showed a selectivity ratio [2] of 2210, an EC50 (Hepatitis B virus [3]) of 12 nM and a CC50 at 72 h [4] of 26600 nM. For the same compound, the IC50 (Core antigen) was 880 nM, the half-life at 100 µM [5] was 0.635 h and the microsomal CLint at 100 µM [1] was 36.4 µL/min/mg. It also gave a remaining at 1 h, 100 µM [6] of 31.2%, a remaining at 1 h, 100 µM [7] of 72.6% and a half-life at 100 µM [8] of 0.9 h. The half-life [9] was 0.98 h, the Cmax [10] was 5390 ng/mL and the AUC(0-t) [11] was 3260 ng·h/mL. It also gave an AUC(0-inf) [12] of 3260 ng·h/mL, a Vdss [13] of 0.51 L/kg and an MRT last [14] of 0.82 h. For the same compound, the half-life [15] was 1.67 h, the Tmax [16] was 1.83 h and the Cmax [17] was 4770 ng/mL. The AUC(0-t) [18] was 22000 ng·h/mL, the AUC(0-inf) [19] was 22000 ng·h/mL and the MRT last [20] was 3.16 h. The MRT inf [21] was 3.26 h, the bioavailability [22] was 67.7% and the Activity [23] was “Non-Toxic”. The EC50 (Hepatitis B virus [24]; HLCZ01, 144 h) was 33 nM, the Activity (Hepatitis B virus [24]; time 6.0 day) was “Dose-Dependent Effect” and the Activity (Hepatitis B virus [25]) was “inactive”. The Activity (Hepatitis B virus [26]) was “Active”, the Activity (Hepatitis B virus [27]) was “Active” and the Activity (Hepatitis B virus [28]) was “inactive”. For the same compound, the Activity [29] was “Non-Toxic” and the Activity [30] was “Non-Toxic”.
